Data from patent EP1210336B1, “SUBSTITUTED BENZIMIDAZOLES AS NON-NUCLEOSIDE INHIBITORS OF REVERSE TRANSCRIPTASE” (THE UNITED STATES OF AMERICA, as represented by the …, priority 1999, dated 2001).

What was measured:
NL4-3 (WT) = assay: Cytopathic cell killing assay, cross-resistance profile, infected MT-4 cells; type: cell-based, HIV-1
Method in brief: (§1)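 Cytopathic protection format: 5 x 10^3 cells/well, HIV-1 WT or RT mutant, MOI ~0.01-0.05 (full killing by d6); triplicate half-log drug series; 37°C, 6 d; XTT read at 450 nm; uninfected drug wells for cytotoxicity.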

[1] = system: HIV-1 isolate 4xAZT/Y181C; assay: as above; type: cell-based
Method in brief: as §1

HIV-1 isolate 4xAZT = assay: as above; type: cell-based
Method in brief: as §1

HIV-1 variant A98G = assay: as above; type: cell-based; conditions: isolate A98G
Method in brief: as §1

HIV-1 variant K101E = assay: as above; type: cell-based
Method in brief: as §1

HIV-1 variant K103N = assay: as above; type: cell-based; conditions: isolate K103N
Method in brief: as §1

HIV-1 variant L100I = assay: as above; type: cell-based; conditions: isolate L1001
Method in brief: as §1

HIV-1 variant L74V = assay: as above; type: cell-based
Method in brief: as §1

HIV-1 variant V106A = assay: as above; type: cell-based; conditions: isolate V106A
Method in brief: as §1

HIV-1 variant V108I = assay: as above; type: cell-based
Method in brief: as §1

HIV-1 variant V179D = assay: as above; type: cell-based; conditions: isolate V179D
Method in brief: as §1

HIV-1 variant Y181C = assay: as above; type: cell-based; conditions: isolate Y181C
Method in brief: as §1

HIV-1 variant Y188C = assay: as above; type: cell-based; conditions: isolate Y188C
Method in brief: as §1

[2] = system: HIV-1 isolate 4xAZT/L100I; assay: as above; type: cell-based
Experimental: The various HIV isolates tested in the Figures are those corresponding to wild-type virus (NL4-3) and the other strains listed by their RT mutations. The three 4xAZT isolates included in the Figures represent AZT drug-resistant variants. […]
Briefly, in this method cells (e.g., the CEM-SS cell line, available from the NIAID AIDS Research and Reference Program [ARRRP]) were seeded at a density of 5 x 10^3 cells/well, into the wells of a 96-well microtiter plate. The cells were then infected with HIV virus (either mutant or WT), at a multiplicity of infection (MOI) previously determined to provide complete cell killing by 6 days of culture post-infection (e.g., MOI of 0.01-0.05). Each of the HIV isolates was pre-titered to induce equivalent levels of infection based on cell killing or virus production, prior to their use in these assays. A range of test compound concentrations was added to the wells in triplicate (e.g., serial half-log dilutions) to evaluate inhibition of HIV infection. Controls for each assay included drug controls (drug colorimetric control wells), drug cytotoxicity control wells (cells with drug), virus control wells (cells with virus), and cell viability controls (cells only). Positive control drugs (e.g., AZT and ddC) were also run in parallel.
After six days of incubation at 37°C, cell viability was determined spectrophotometrically at 450 nm for each well, using the metabolic reduction of XTT to a soluble colored formazan. (See, Gartner and Popovic, "Virus Isolation and Production, in Aldovini and Walker (eds.), Techniques in HIV Research, Stockton Press, NY, pp. […] [1991]; and Nara and Fischinger, "Quantitative Infectivity Assay for HIV-1 and HIV-2," Nature 332:469-470 [1988]).
The in vitro therapeutic index (TI50) was defined as the fold-difference between the EC50 and IC50.

HIV-1 WT RT = biological target: T1, HIV-1 WT RT (Human immunodeficiency virus type 1 group M subtype B, UniProt P03366); conditions: reported by Pauwels et al. (TIBO) and Buckheit et al. (thiazolobenzimidazole); read-out: IC50 for rC:dG; cited from earlier work
T1 construct: purified RT protein (0.015 mg/mL) was incubated in a 100 µL reaction mixture

[3] = Human immunodeficiency virus 1, MT4, Table 4
[4] = Human immunodeficiency virus 1, MT4, Table 9
[5] = Human immunodeficiency virus 1, MT4, Table 10 (values in µM)

CC1Cn2c(=O)[nH]c3cccc(c32)CN1 (stereo not drawn) [TIBO, 4,5,6,7-tetrahydro-5-methylimidazo[4,5,1-jk][1,4]benzodiazepin-2(1H)-one, reference compound]
EC50 (NL4-3 (WT); Human immunodeficiency virus 1, NL43, MT4, Table 4, isolate NL4-3 (WT)): 0.3 µM
EC50 (NL4-3 (WT); Human immunodeficiency virus 1, NL43, MT4, Table 9, isolate NL4.3): 0.3 µM
EC50 (NL4-3 (WT); Human immunodeficiency virus 1, NL43, MT4, Table 10 (values in µM), isolate NL4-3 (WT)): 0.3 µM
EC50 ([1]; Human immunodeficiency virus 1, MT4, Table 4, isolate 4xAZT/Y181C): 2 µM
EC50 ([1]; Human immunodeficiency virus 1, MT4, Table 9, isolate 4XAZT /Y181C): 2 µM
EC50 (HIV-1 isolate 4xAZT; Human immunodeficiency virus 1, MT4, Table 4, isolate 4xAZT): 0.3 µM
EC50 (HIV-1 isolate 4xAZT; Human immunodeficiency virus 1, MT4, Table 9, isolate 4XAZT): 0.3 µM
EC50 (HIV-1 variant A98G; [3]): 11 µM
EC50 (HIV-1 variant A98G; [4]): 11 µM
EC50 (HIV-1 variant K101E; Human immunodeficiency virus 1, MT4, Table 4, isolate K101E): 17.4 µM
EC50 (HIV-1 variant K101E; Human immunodeficiency virus 1, MT4, Table 9, isolate KIOIE): > 10 µM
EC50 (HIV-1 variant K101E; Human immunodeficiency virus 1, MT4, Table 10 (values in µM), isolate K101E): 17.4 µM
EC50 (HIV-1 variant K103N; [3]): 17.4 µM
EC50 (HIV-1 variant K103N; [4]): > 10 µM
EC50 (HIV-1 variant K103N; [5]): 17.4 µM
EC50 (HIV-1 variant L100I; [3]): 17.4 µM
EC50 (HIV-1 variant L100I; [4]): > 10 µM
EC50 (HIV-1 variant L100I; [5]): 17.4 µM
EC50 (HIV-1 variant L74V; Human immunodeficiency virus 1, MT4, Table 4, isolate L74V): 0.2 µM
EC50 (HIV-1 variant L74V; Human immunodeficiency virus 1, MT4, Table 9, isolate 1.74 V): 0.2 µM
EC50 (HIV-1 variant V106A; [3]): 12.5 µM
EC50 (HIV-1 variant V106A; [4]): > 10 µM
EC50 (HIV-1 variant V108I; Human immunodeficiency virus 1, MT4, Table 4, isolate V108I): 2.4 µM
EC50 (HIV-1 variant V108I; Human immunodeficiency virus 1, MT4, Table 9, isolate V1081): 2.4 µM
EC50 (HIV-1 variant V108I; Human immunodeficiency virus 1, MT4, Table 10 (values in µM), isolate V108l): 2.4 µM
EC50 (HIV-1 variant V179D; [3]): 6.2 µM
EC50 (HIV-1 variant V179D; [4]): 6.2 µM
EC50 (HIV-1 variant Y181C; [3]): 4.2 µM
EC50 (HIV-1 variant Y181C; [4]): 4.2 µM
EC50 (HIV-1 variant Y181C; [5]): 4.2 µM
EC50 (HIV-1 variant Y188C; [3]): > 17.4 µM
EC50 (HIV-1 variant Y188C; [4]): > 20 µM
EC50 (HIV-1 variant Y188C; [5]): > 17.4 µM
EC50 ([2]; Human immunodeficiency virus 1, MT4, Table 4, isolate 4xAZT/L.1001): > 17.4 µM
EC50 ([2]; Human immunodeficiency virus 1, MT4, Table 9, isolate 4XAZT /L1001): > 20 µM
IC50 (HIV-1 WT RT): 0.06 µM
